The nature of this assay: Inhibition of human PD-1 expressed in rat PBMCs/human PD-L1 expressed in MDA-MB-231 cells protein-protein interaction assessed as increase in PBMCs proliferation.

Consider one compound from BindingDB's records for PubMed 31761384 (China Pharmaceutical University, 2020).

pEC50: −log10 of the molar value. Bridge positions count the residues as written; N and C are the ends. Peptide text beside a SMILES is read from it.

As a reminder, the pEC50 is −log10 of the EC50, conventionally taken in molar units. `CC[C@H](C)[C@@H]1NC(=O)[C@H](CC(C)C)NC(=O)[C@H](Cc2ccccc2)NC(=O)CSC[C@@H](C(=O)NCC(N)=O)NC(=O)[C@H](CCCNC(=N)N)NC(=O)[C@H](Cc2ccccc2)NC(=O)[C@H](C(C)C)NC(=O)[C@H](CCCNC(=N)N)NC(=O)[C@H](CC(=O)O)NC(=O)[C@H](CCCNC(=N)N)NC(=O)[C@H]([C@@H](C)CC)NC(=O)[C@H](C(C)C)NC1=O` ({CH2CO}-FLIVIRDRVFRCG-NH2; thioether N-12): the pEC50 is 9.39.
